Literature values, collected in patent US9468626B2, “Melatonin-based formulations for parenteral administration” (CHIESI FARMACEUTICI S.p.A., priority 2014, dated 2016).

Columns and labels:
newborn piglets = conditions: intravenously, 5 mg/kg/h
[1] = exposed to light or oxygen
[2] = in vivo

solubility in water: poorly soluble in water
oral bioavailability [2]: low and very variable
SMILES: COc1ccc2[nH]cc(CCNC(C)=O)c2c1 [melatonin, N-[2-(5-Methoxy-1H-indol-3-yl)ethyl]acetamide]
hypothermic neuroprotection (newborn piglets): increases hypothermic neuroprotection
stability in aqueous solution [1]: not stable when exposed to light or oxygen
